One data set concerns the target T1, P70 S6 kinase (T412E) (Homo sapiens, UniProt P23443, T412E).
T1 construct: purchased Upstate USA, Inc. (Charlottesville, Va.)
The data set can be described thus: Inhibition of p70S6 Kinase. It counts as biochemical. Conditions: 25 μM ATP, 5 nM enzyme, relative IC50. The protocol: P70 S6 kinase (T412E) from Upstate USA, Inc. (Charlottesville, Va.) is preincubated with 10 concentrations of compound in a 15 μL volume for 30 min at room temperature in 96-well plates. PKA, PKC, MAPKAP-K1 Substrate from AnaSpec (San Jose, Calif.) and gamma ^33P-ATP from PerkinElmer (Waltham, Mass.) is added to initiate the reaction which is allowed to proceed for 60 minutes at room temperature in a final 25 μL volume under the following conditions: 10 mM HEPES pH 7.5, 10 mM MgCl2, 1.0 mM DTT, 0.082 mM EGTA, 0.005% TRITON X-100™, 25 μM, 25 μM ATP, 40 μCi/mL, 4 μM substrate, and 5 nM enzyme. Reactions are terminated with 75 μL 10% H3PO4 and 85 μL of quenched reaction mix is transferred to a phosphocellulose filter plate (Millipore #MAPHN0B50) and washed with 0.5% H3PO4 using a vacuum manifold. 100 μL of Microscint 20 (Packard #60113621) is added to each well and plates with liner are counted using a Wallac Beta Counter. Relative IC50 values are calculated by non-linear four parameter fitting.

Data set [1] relates to HUVEC / neo NHDF co-culture cord formation. The data set can be described thus: Angiogenesis Cord Formation Assay. Type of data set: cell-based. Conditions: Homo sapiens, 288 h; 20 ng/mL VEGF, 12 day; cord area and angiogenesis index; read-out: IC50. The protocol: Human neonatal dermal fibroblast cells (neo NHDF) are seeded into Parkard 96 well plate on the first day, and incubated in the 37° C. and 5% CO2 incubator. Human umbilical vein endothelial cells (HUVEC) are then plated on the top of neo NHDF cells. Starting the third day, the co-culture is treated with eight-dose series of the test compound (starting with 20 μM, 1:3 serial dilution) in the presence of 20 ng/mL vascular endothelial growth factor (VEGF). The compound and VEGF are replenished every two to three days. The assay is conducted over a 12 day period. Cells are fixed by cold 70% ethanol for 30 minutes on the 12th day and processed for anti human CD31 immunofluorescence. Cultures are incubated with mouse anti human CD31 antibody and then stained by goat anti mouse alexa 488 secondary antibody. Cells are also stained by Hoechst to visualize the nucleus. After the staining, the cord formation is captured and quantified using Cellomics Arrayscan® VTI high content image analysis platform adopting the tube formation BioApplication. Two parameters, the cord area and angiogenesis index, are used to calculate the relative potency of the test compound in this angiogenesis assay. The compounds of Examples 5 and 10 were tested and analyzed essentially as described above.

In the next data set the test system is U87MG. The data set can be described thus: Cell assay (Alamar Blue, 72 hours) U87MG. It counts as cell-based. The following applies: Homo sapiens, U-87 MG. The protocol: (§1) Cells are maintained, then typsinized and suspended in Dulbecco's modified Eagle's medium (DMEM_containing 10% fetal bovine serum (FBS), 25 mM 4-(2-hydroxyethyl)-1-piperazineethanesulfonic acid (HEPES), 1.0 mM Sodium Pyruvate and 0.1 mM Non Essential Amino Acids (NEAA). 1×10^3 HCT116 and 2×10^3 Cells may be seeded in 50 μL in 96 well plates and incubated in 5% CO2 at 37° C. overnight. Compounds are prepared at desired starting concentrations and serial diluted in DMSO. 4 μL of diluted compounds are transferred in 1 mL 10% FBS DMEM to make up 2× concentrations as added 50 μL to the 50 μL in the presence of cells for dosing. The plates are incubated at 37° C. in 5% CO2 for 72 hours. At the end of incubation period, 10 μL Alamar Blue is added and after 2 hours reaction the measurement is determined in CytoFluor at 530 nm excitation, 580 nm emission and Gain 45. The following compounds were tested in the following cell lines essentially as described above.
(In general: Alamar Blue is a resazurin reagent that responds to reducing activity.)

The next data set has as its system A549. Put plainly: Cell assay (Alamar Blue, 72 hours) A549. It counts as cell-based. Conditions: Homo sapiens. The protocol:
as §1

The next data set has as its target T2, p70 S6K (Homo sapiens, UniProt P23443).
T2 construct: endogenous in cells; host or cells: HCT 116 human colon carcinoma xenograft tumours in athymic nude mice
The data set can be described thus: Determination of p70 S6K In Vivo Target Inhibition (HCT 116). Further details: species or system athymic nude mice. Conditions: HCT 116 xenograft, PO; potency based on plasma exposure; phosphorylation of S6RP serine 240/244. Here is the method:
HCT 116 human colon carcinoma cells* (5×10^6) are subcutaneously implanted into the flank of athymic nude mice in 0.2 mL of matrigel. Two weeks post-implantation, mice are dosed PO according to a time course, single dose/single time point, or dose response protocol for the determination of TMED50 (threshold minimum effective dose). Tumors are flash frozen at harvest and blood is collected for the determination of parent compound plasma exposure and the calculation of TMEC50 (threshold minimum effective concentration) in the case of dose response studies. Tumors or tissues are homogenized in XY Lysis buffer (10 μg/mL Leupeptin, 10 μg/mL Trypsin-Chymotrypsin Inhibitor, 10 μg/mL Tosyl phenylalanyl chloromethyl ketone (TPCK), 10 μg/mL Aprotinin, 60 mM Beta-Glycerol Phosphate, 1% Triton X100, 25 mM Tris pH 7.5, 2.5 mM Pyrophosphate, 150 mM NaCl, 2 mM p-tosyl-L-arginine methyl ester (TAME), 15 mM para-nitrophenyl phosphate (pNPP), 5 mM Benzamidine, 1 mM Na Vanadate, 10 mM NaF, 50 μg/mL phenylmethane sulofnyl fluoride (PMSF), 1 mM DTT, 15 mM EDTA pH 8.0, 5 mM EGTA pH 8.0, 1 μM Microcystin, 1 μM Okadaic Acid, and 1 Roche Complete protease inhibitor mini-tablet per 10 mL) using Lysing Matrix A tubes (MP Biomedicals, Solon, Ohio, cat# 6910-500) and a BIO101 Thermo Savant Fast Prep FP12. Lysates are aliquoted and either assayed immediately or stored at −80° C. for later testing. In Vivo Target Inhibition of p70 S6K is measured utilizing Meso Scale Discovery (Gaithersburg, Md.) ELISA technology to assess effects of the compound on phosphorylation of the serine 240/244 site of the downstream effector S6RP. Phosphorylation of p70 S6K(T389) and Akt(S473) is also assessed using this technology in a multiplex format. In summary, 20 μg of lysate is added to a carbon electrode 96-well plate pre-spotted with the appropriate capture antibodies. The protein of interest is probed using a ruthenium labeled detection antibody. Upon the passage of current over the electrode in the presence of read buffer containing the co-reactant TPA, electro-chemiluminescence results in the generation of light which is quantified and recorded using the MSD Sector 6000 instrument. For each study, percent inhibitions are calculated relative to the vehicle control group and ANOVA analysis is performed using the JMP software package for the determination of statistical significance. The following compounds were tested essentially as described above and have the following potencies based on plasma exposure.

T1 sequence (P23443 whole entry T412E): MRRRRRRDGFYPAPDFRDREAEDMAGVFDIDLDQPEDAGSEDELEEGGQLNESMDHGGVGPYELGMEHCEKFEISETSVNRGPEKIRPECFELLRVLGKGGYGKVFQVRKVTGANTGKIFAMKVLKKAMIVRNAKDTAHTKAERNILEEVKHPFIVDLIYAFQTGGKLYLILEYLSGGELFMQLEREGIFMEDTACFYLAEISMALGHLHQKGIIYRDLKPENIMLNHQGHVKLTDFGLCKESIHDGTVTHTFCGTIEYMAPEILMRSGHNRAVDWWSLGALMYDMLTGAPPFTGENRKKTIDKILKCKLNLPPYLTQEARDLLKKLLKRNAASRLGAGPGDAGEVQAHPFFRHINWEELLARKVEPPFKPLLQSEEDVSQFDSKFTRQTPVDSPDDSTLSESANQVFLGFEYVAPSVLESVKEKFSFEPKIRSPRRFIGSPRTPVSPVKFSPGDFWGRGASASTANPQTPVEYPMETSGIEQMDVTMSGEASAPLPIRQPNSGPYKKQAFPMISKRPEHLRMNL
T2 sequence (P23443 whole entry): as the sequence (P23443 whole entry T412E) above, with E412T counted along it

The IC50 is the concentration that gives 50% inhibition. By melting point is commonly meant the temperature, or range, at which the solid turns liquid. Consider `Cl.FC(F)(F)c1cccc(-c2c[nH]c(C3CCN(c4ncnc5[nH]ncc45)CC3)n2)c1` [Example 5, 4-{4-[4-(3-(Trifluoromethyl)-phenyl)-1H-imidazol-2-yl]-piperidin-1-yl}-1H-pyrazolo[3,4-d]pyrimidine hydrochloride], for which the melting point was 306 °C. This compound displayed an IC50 against P70 S6 kinase (T412E) of 0.0294 µM. Besides, the half-inhibitory concentration (IC50) in data set [1] came to 2.92 µM. Also, in the data set with U87MG, the IC50 turned out to be 14.6 µM. Besides, the IC50 in the data set on A549 came out at 22 µM. Also, the half-maximal inhibitory concentration (IC50) at p70 S6K came to 7.3 µM.

The values are drawn from patent US8093383B2, “P70 S6 kinase inhibitors” (Eli Lilly and Company, priority 2007, dated 2012).
